Legend:
[1] = tested on: interleukin 5 (IL-5) production; assay: Cytokine production inhibitory effect: IL-5 production by murine spleen cells treated with anti-mouse CD3 antibody and IL-2 (ELISA); assay type: cell-based, Balb/c mice; details: anti-CD3 antibody + IL-2, 40 to 48 hours, read-out: IL-5 production inhibitory ratio (%); for inhibition at 100 ppm: test compound 100 ppm
[2] = tested on: interferon γ (IFN-γ) production; assay: Cytokine production inhibitory effect: IFN-γ production by murine spleen cells treated with anti-mouse CD3 antibody and IL-2 (ELISA); assay type: cell-based, Balb/c mice; details: anti-CD3 antibody + IL-2, 40 to 48 hours, read-out: IFN-γ production inhibitory ratio (%); for inhibition at 100 ppm: test compound 100 ppm

Row | melting point | Structure (SMILES) | inhibition at 100 ppm [1] | inhibition at 100 ppm [2] | inhibition at 2 ppm ([1]; test compound 2 ppm) | inhibition at 2 ppm ([2]; test compound 2 ppm)
1 | 181 to 183 °C | Cc1ccc(NC(=O)c2ccc([N+](=O)[O-])cc2Cl)c(C)c1 [compound 73] | 64% | 28% |  | 
2 | 176 to 180 °C | O=C(Nc1ccc(CSc2ccccc2)cc1)c1cc([N+](=O)[O-])ccc1Cl [compound 79] | 62% | 90% |  | 
3 | 154 °C | COc1ccc(NC(=O)c2cc([N+](=O)[O-])ccc2Cl)cc1 [compound 28] | 100% | 100% |  | 
4 | 198 °C | O=C(Nc1ccc(Oc2ccccn2)cc1)c1cc([N+](=O)[O-])ccc1Cl [compound 63] | 100% | 100% |  | 
5 | 233 to 236 °C | Cc1cc(NS(=O)(=O)c2cc([N+](=O)[O-])ccc2Cl)ccc1Oc1ncc(C(F)(F)F)cc1Cl [compound 117] | 100% | 100% |  | 
6 | 98 to 105 °C | O=C(Nc1ccc(OC23CC4CC(CC(C4)C2)C3)nc1)c1cc([N+](=O)[O-])ccc1Cl [Compound No. 123, N-(2-(1-adamantyloxy)-5-pyridyl)-2-chloro-5-nitrobenzamide] | 100% | 100% |  | 
7 | 154 to 158 °C | COC(=O)c1cc(Oc2ncc(C(F)(F)F)cc2Cl)ccc1NC(=O)c1cc([N+](=O)[O-])ccc1Cl [compound 100] | 92% | 93% |  | 
8 | 180 to 183 °C | O=C(Nc1ccc(Sc2ccccc2)cc1)c1cc([N+](=O)[O-])ccc1Cl [compound 69] | 100% | 100% |  | 
9 | 220 to 226 °C | Cc1cc(-c2nc3ccccc3s2)ccc1NC(=O)c1cc([N+](=O)[O-])ccc1Cl [Compound No. 2] |  |  | 74% | 84%
10 | 131 °C | Cc1cc(C23CC4CC(CC(C4)C2)C3)ccc1NC(=O)c1cc([N+](=O)[O-])ccc1O [compound 56] | 100% | 100% |  | 
11 | 179 to 181 °C | Cc1cc(NC(=O)c2cc([N+](=O)[O-])ccc2F)ccc1Oc1ncc(C(F)(F)F)cc1Cl [compound 119] | 100% | 99% |  | 
12 | 168 °C | O=C(Nc1ccc(Oc2ccc(C(F)(F)F)cc2Cl)cc1)c1cc([N+](=O)[O-])ccc1Cl [compound 89] | 87% | 99% |  | 
13 | 273 to 275 °C | O=C(Nc1ccc(C23CC4CC(CC(C4)C2)C3)cc1)c1cc([N+](=O)[O-])ccc1Br [compound 94] | 85% | 53% |  | 
14 | 159 to 161 °C | O=CNc1cccc(C(=O)Nc2ccc(Oc3ccc(C(F)(F)F)cn3)c(Cl)c2)c1O [compound 17] | 100% | 100% |  | 
15 | 177 °C | Cc1cc(C23CC4CC(CC(C4)C2)C3)ccc1NC(=O)c1cccc([N+](=O)[O-])c1 [compound 23] | 100% | 100% |  | 
16 | 221 °C | CS(=O)(=O)c1ccc(Cl)c(C(=O)Nc2ccc(Oc3ncc(C(F)(F)F)cc3Cl)cc2)c1 [compound 88] | 72% | 17% |  | 
17 | 160 to 161 °C | O=C(Nc1ccc(Oc2ccc(C(F)(F)F)cn2)c(Cl)c1)c1cccc(Cl)c1 [compound 6] | 100% | 100% |  | 
18 | 131 to 134 °C | O=C(Nc1ccc(CCOc2ncc(C(F)(F)F)cc2Cl)cc1)c1cc([N+](=O)[O-])ccc1Cl [compound 97] | 77% | 84% |  | 

Row | melting point | Structure (SMILES) | inhibition at 100 ppm [1] | inhibition at 100 ppm [2] | inhibition at 2 ppm ([1]; test compound 2 ppm) | inhibition at 2 ppm ([2]; test compound 2 ppm)
19 | 225 to 229 °C | O=C(Nc1ccc2c(c1)CCC2)c1cc([N+](=O)[O-])ccc1Cl [compound 139] | 89% | 50% |  | 
20 | 198 °C | Cc1cc(C23CC4CC(CC(C4)C2)C3)ccc1NC(=O)c1cc([N+](=O)[O-])ccc1C [compound 36] | 81% | 85% |  | 
21 | 103 to 105 °C | COc1cccc(C(=O)Nc2ccc(Oc3ccc(C(F)(F)F)cn3)c(Cl)c2)c1 [Compound No. 10] | 100% | 100% |  | 
22 | 222 to 225 °C | O=C(Nc1ccc(Oc2ncc(C(F)(F)F)cc2Cl)c(Cl)c1)c1cc([N+](=O)[O-])ccc1Cl [compound 113] | 96% | 97% |  | 
23 | 201 to 204 °C | O=C(Nc1ccc(CO)cc1)c1cc([N+](=O)[O-])ccc1Cl [compound 92] | 99% | 100% |  | 
24 | 209 to 212 °C | N#Cc1ccc(Cl)c(C(=O)Nc2ccc(Oc3ncc(C(F)(F)F)cc3Cl)cc2)c1 [compound 86] | 87% | 29% |  | 
25 | 165 to 167 °C | O=C(Nc1ccc(Oc2ncc(C(F)(F)F)cc2Cl)c(-n2cccc2)c1)c1cc([N+](=O)[O-])ccc1Cl [Compound No. 127, N-(4-(3-chloro-5-trifluoromethyl-2-pyridyloxy)-3-(1-pyrrolyl)phenyl)-2-chloro-5-nitrobenzamide] | 100% | 100% |  | 
26 | 229 °C | Cc1cc(C23CC4CC(CC(C4)C2)C3)ccc1NC(=O)c1cc([N+](=O)[O-])ccc1Br [Compound No. 46, N-(4-(1-adamantyl)-2-methylphenyl)-2-bromo-5-nitrobenzamide] | 100% | 98% |  | 
27 | 200 °C | Cc1cc(C23CC4CC(CC(C4)C2)C3)ccc1NS(=O)(=O)c1ccccc1Cl [compound 25] | 89% | 93% |  | 
28 | 240 to 245 °C | O=C(Nc1ccc(Oc2ncc(C(F)(F)F)cc2Cl)cc1C(=O)O)c1cc([N+](=O)[O-])ccc1Cl [compound 101] | 100% | 100% |  | 
29 | 189 °C | O=C(Nc1ccc(Sc2ccc(C(F)(F)F)cn2)cc1)c1cc([N+](=O)[O-])ccc1Cl [compound 32] | 99% | 98% |  | 
30 | 154 °C | O=C(Nc1ccccc1-c1ccccc1)c1cc([N+](=O)[O-])ccc1Cl [compound 38] | 86% | 93% |  | 
31 | 217 to 221 °C | O=C(Nc1nc(-c2ccc(Cl)cc2)cs1)c1cc([N+](=O)[O-])ccc1Cl [compound 141] | 100% | 100% |  | 
32 | 235 to 237 °C | Nc1cc(NC(=O)c2cc([N+](=O)[O-])ccc2Cl)ccc1Oc1ncc(C(F)(F)F)cc1Cl [compound 121] | 97% | 100% |  | 
33 | 211.5 to 214.4 °C | O=C(Nc1ccc(Cc2ccccc2)cc1)c1cc([N+](=O)[O-])ccc1O [compound 18] | 100% | 100% |  | 
34 | 154 °C | Cc1cc(C23CC4CC(CC(C4)C2)C3)ccc1NC(=O)c1ccccc1Cl [compound 22] | 100% | 100% |  | 
35 | 198 °C | Cc1cc(C23CC4CC(CC(C4)C2)C3)ccc1NC(=O)c1cc([N+](=O)[O-])ccc1F [compound 45] | 99% | 99% |  | 

From patent US7132546B2, “Aniline derivatives or salts thereof and cytokine production inhibitors containing the same” (Ishihara Sangyo Kaisha, Ltd., priority 2000, dated 2006)
